Source: PubChem BioAssay AID1963972 (Molecular Pharmacology Branch, DTP, NCI, 2024)

Test system: 945468-187-T-J2-PDC spheroids viability
Assay: Anticancer human tumor 945468-187-T-J2-PDC patient-derived rectal carcinoma cell line growth inhibition [PI3K]
Settings: spheroids with HUVEC and MSC; for IC50: curve of first compound; for viability, T/C: stronger effect = lower value
Procedure, shortened: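 Agents were dosed from a top concentration near clinical Cmax (otherwise 10 microM) in half-log decrements, alone or combined with PI3K inhibitors. The spheroids contain tumor cells plus endothelial (HUVEC) and MSC stroma; viability is measured.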

[1] = second compound 0.00316 µM, first compound 0.0316 µM
[2] = second compound 0.00316 µM, first compound 0.1 µM
[3] = second compound 0.00316 µM, first compound 0.316 µM
[4] = second compound 0.00316 µM, first compound 1 µM
[5] = second compound 0.00316 µM, first compound 3.16 µM
[6] = second compound 0.00316 µM, first compound 10 µM
[7] = second compound 0.01 µM, first compound 0.0316 µM
[8] = second compound 0.01 µM, first compound 0.1 µM
[9] = second compound 0.01 µM, first compound 0.316 µM
[10] = second compound 0.01 µM, first compound 1 µM
[11] = second compound 0.01 µM, first compound 3.16 µM
[12] = second compound 0.01 µM, first compound 10 µM
[13] = second compound 0.0316 µM, first compound 0.0316 µM
[14] = second compound 0.0316 µM, first compound 0.1 µM
[15] = second compound 0.0316 µM, first compound 0.316 µM
[16] = second compound 0.0316 µM, first compound 1 µM
[17] = second compound 0.0316 µM, first compound 3.16 µM
[18] = second compound 0.0316 µM, first compound 10 µM
[19] = second compound 0.1 µM, first compound 0.0316 µM
[20] = second compound 0.1 µM, first compound 0.1 µM
[21] = second compound 0.1 µM, first compound 0.316 µM
[22] = second compound 0.1 µM, first compound 1 µM
[23] = second compound 0.1 µM, first compound 3.16 µM
[24] = second compound 0.1 µM, first compound 10 µM
[25] = second compound 0.316 µM, first compound 0.0316 µM
[26] = second compound 0.316 µM, first compound 0.1 µM
[27] = second compound 0.316 µM, first compound 0.316 µM
[28] = second compound 0.316 µM, first compound 1 µM
[29] = second compound 0.316 µM, first compound 3.16 µM
[30] = second compound 0.316 µM, first compound 10 µM
[31] = second compound 1 µM, first compound 0.0316 µM
[32] = second compound 1 µM, first compound 0.1 µM
[33] = second compound 1 µM, first compound 0.316 µM
[34] = second compound 1 µM, first compound 1 µM
[35] = second compound 1 µM, first compound 3.16 µM
[36] = second compound 1 µM, first compound 10 µM
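Note: spheroids exposed to compounds for seven days before reading.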

C#Cc1c(F)ccc2cc(O)cc(-c3ncc4c(N5CC6CCC(C5)N6)nc(OCC56CCCN5CC(F)C6)nc4c3F)c12 (centres undefined) + COc1c(OCCCN2CCOCC2)ccc2c3n(c(=NC(=O)c4cnc(N)nc4)nc12)CCN3
IC50 (second compound 0.00316 µM): > 10000 nM | IC50 (second compound 0.01 µM): > 10000 nM | IC50 (second compound 0.0316 µM): > 10000 nM | IC50 (second compound 0.1 µM): > 10000 nM | IC50 (second compound 0.316 µM): < 31.6 nM | IC50 (second compound 1 µM): < 31.6 nM | viability, T/C [1]: 124% | viability, T/C [2]: 91.1% | viability, T/C [3]: 121% | viability, T/C [4]: 102% | viability, T/C [5]: 121% | viability, T/C [6]: 94.1% | viability, T/C [7]: 107% | viability, T/C [8]: 98.8% | viability, T/C [9]: 104% | viability, T/C [10]: 88.1% | viability, T/C [11]: 81.1% | viability, T/C [12]: 97% | viability, T/C [13]: 79% | viability, T/C [14]: 114% | viability, T/C [15]: 94.2% | viability, T/C [16]: 110% | viability, T/C [17]: 99% | viability, T/C [18]: 104% | viability, T/C [19]: 70.2% | viability, T/C [20]: 95% | viability, T/C [21]: 79.2% | viability, T/C [22]: 81.4% | viability, T/C [23]: 83.4% | viability, T/C [24]: 59.8% | viability, T/C [25]: 44.6% | viability, T/C [26]: 41.3% | viability, T/C [27]: 45% | viability, T/C [28]: 41.8% | viability, T/C [29]: 33.1% | viability, T/C [30]: 26.9% | viability, T/C [31]: 18.7% | viability, T/C [32]: 17.3% | viability, T/C [33]: 18.1% | viability, T/C [34]: 19.2% | viability, T/C [35]: 19.1% | viability, T/C [36]: 14.4%

CC1(C)CCC(Nc2ncc(C(F)(F)F)c(-c3c[nH]c4c(P(C)(C)=O)c(C#N)ccc34)n2)CN1 (centres undefined) + COc1c(OCCCN2CCOCC2)ccc2c3n(c(=NC(=O)c4cnc(N)nc4)nc12)CCN3
IC50 (second compound 0.00316 µM): 663 nM | IC50 (second compound 0.01 µM): 871 nM | IC50 (second compound 0.0316 µM): 745 nM | IC50 (second compound 0.1 µM): 663 nM | IC50 (second compound 0.316 µM): < 31.6 nM | IC50 (second compound 1 µM): < 31.6 nM | viability, T/C [1]: 91% | viability, T/C [2]: 86.8% | viability, T/C [3]: 66.3% | viability, T/C [4]: 40.5% | viability, T/C [5]: 32.6% | viability, T/C [6]: 27.6% | viability, T/C [7]: 92.9% | viability, T/C [8]: 89.8% | viability, T/C [9]: 76% | viability, T/C [10]: 46.8% | viability, T/C [11]: 30.2% | viability, T/C [12]: 28.7% | viability, T/C [13]: 110% | viability, T/C [14]: 85% | viability, T/C [15]: 69.2% | viability, T/C [16]: 38.9% | viability, T/C [17]: 37.7% | viability, T/C [18]: 25.9% | viability, T/C [19]: 86.5% | viability, T/C [20]: 88.4% | viability, T/C [21]: 62.8% | viability, T/C [22]: 43.5% | viability, T/C [23]: 37.3% | viability, T/C [24]: 31.8% | viability, T/C [25]: 42% | viability, T/C [26]: 44.3% | viability, T/C [27]: 40.2% | viability, T/C [28]: 33.8% | viability, T/C [29]: 31.2% | viability, T/C [30]: 17.2% | viability, T/C [31]: 21.3% | viability, T/C [32]: 19.5% | viability, T/C [33]: 22.8% | viability, T/C [34]: 19% | viability, T/C [35]: 17.7% | viability, T/C [36]: 10.2%
